Measurements from the supplement of paper PMC10331698.
± gives the standard deviation of the averaged measurements.

Key:
Test in all cases: level (log10 ratio to DMSO vehicle control); higher = higher biomarker level / cell amount than vehicle control
Details in all cases: in DMSO
[1] = compound: O=C(O)C(F)(F)OC(F)(F)C(F)(F)OC(F)(F)C(F)(F)C(F)(F)C(F)(F)F [Perfluoro-3,6-dioxadecanoic acid]
Method: (§1)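 BioMAP Diversity Plus panel of 12 human primary cell co-culture systems (3C, 4H, LPS, SAg, BT, BF4T, BE3C, CASM3C, HDF3CGF, KF3CT, MyoF, Mphg). Compounds were added 1 h before stimulation and left for 24 h (MyoF 48 h; BT 72 h for soluble read-outs or 6 d for IgG). Biomarkers were read by ELISA, cytotoxicity by SRB, PBMC viability and proliferation by Alamar Blue. Each well value was divided by the mean of 8 DMSO control wells on the same plate and log10 transformed; duplicate blinded samples were tested at 4 concentrations.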

[2] = compound: OCC(F)(F)C(F)(F)C(F)(F)C(F)(F)C(F)(F)C(F)F [1H,1H,7H-Dodecafluoro-1-heptanol]
Method: as §1

Perfluorooctanamidine = compound: N=C(N)C(F)(F)C(F)(F)C(F)(F)C(F)(F)C(F)(F)C(F)(F)C(F)(F)F [Perfluorooctanamidine]
Method: as §1

[3] = compound: FC(F)(F)C(F)(F)C(F)(F)C(F)(F)C(F)(F)C(F)(F)C(F)(F)CCI [1-Iodo-1H,1H,2H,2H-perfluorononane]
Method: as §1

[4] = compound: O=C(O)CCC(F)(F)C(F)(F)C(F)(F)F [3:3 Fluorotelomer carboxylic acid]
Method: as §1

[5] = compound: C=CC(=O)OCCC(F)(F)C(F)(F)C(F)(F)C(F)(F)F [2-(Perfluorobutyl)ethyl acrylate]
Method: as §1

[6] = compound: CNS(=O)(=O)C(F)(F)C(F)(F)C(F)(F)C(F)(F)C(F)(F)C(F)(F)C(F)(F)C(F)(F)F [N-Methylperfluorooctanesulfonamide]
Method: as §1

Row | Test System | level (log10) ([1]; 6700 nM) | level (log10) ([1]; 20000 nM) | level (log10) ([1]; 60000 nM) | level (log10) ([2]; 6700 nM) | level (log10) ([2]; 20000 nM) | level (log10) ([2]; 60000 nM) | level (log10) (Perfluorooctanamidine; 6700 nM) | level (log10) (Perfluorooctanamidine; 20000 nM) | level (log10) (Perfluorooctanamidine; 60000 nM) | level (log10) ([3]; 6700 nM) | level (log10) ([3]; 20000 nM) | level (log10) ([4]; 6700 nM) | level (log10) ([4]; 20000 nM) | level (log10) ([4]; 60000 nM) | level (log10) ([5]; 6700 nM) | level (log10) ([5]; 20000 nM) | level (log10) ([5]; 60000 nM) | level (log10) ([6]; 6700 nM) | level (log10) ([6]; 20000 nM) | level (log10) ([6]; 60000 nM)
1 | BE3C:CXCL9/MIG | -0.0045 ± 0.011 | -0.011 ± 0.017 | -0.012 ± 0.0057 | 0.0135 ± 0.0021 | 0.003 ± 0.014 | 0.0115 ± 0.013 | 0.0135 ± 0.018 | 0.0085 ± 0.0092 | 0.037 | -0.0085 ± 0.0035 | -0.0015 ± 0.0092 | 0.006 ± 0.0099 | 0.0055 ± 0.00071 | 0.01 ± 0.0014 | 0.0005 ± 0.005 | -0.0085 ± 0.005 | 0.003 ± 0.0057 | 0.0125 ± 0.016 | 0.009 ± 0.018 | 0.021 ± 0.028
2 | BE3C:CD54/ICAM-1 | -0.0105 ± 0.0021 | -0.024 ± 0.013 | 0.008 ± 0.0057 | 0.0205 ± 0.029 | 0.01 ± 0.027 | 0.0145 ± 0.012 | -0.017 ± 0.0028 | -0.019 ± 0.0057 | 0.027 | 0.0115 ± 0.005 | -0.009 ± 0.016 | -0.009 ± 0.0042 | 0.017 ± 0.02 | 0.002 ± 0.0057 | -0.0045 ± 0.0035 | -0.0175 ± 0.0064 | -0.037 ± 0.03 | 0.0055 ± 0.0021 | 0.0255 ± 0.0021 | 0.016 ± 0.0071
3 | LPS:M-CSF | 0.006 ± 0.018 | -0.0115 ± 0.03 | -0.013 ± 0.0057 | 0.0025 ± 0.00071 | 0.0075 ± 0.0035 | 0.01 ± 0.038 | -0.0045 ± 0.0078 | -0.011 ± 0.03 | -0.068 | -0.003 ± 0.028 | -0.0015 ± 0.093 | -0.0335 ± 0.052 | -0.0095 ± 0.016 | 0.0215 ± 0.033 | -0.0115 ± 0.0021 | -0.0085 ± 0.011 | -0.052 ± 0.085 | -0.038 ± 0.018 | -0.0125 ± 0.011 | -0.017 ± 0.013
4 | 3C:CXCL8/IL-8 | -0.006 | -0.0025 ± 0.0064 | 0.0305 ± 0.013 | 0.0125 ± 0.032 | 0.0115 ± 0.021 | 0.0265 ± 0.0064 | 0.018 ± 0.011 | 0.022 ± 0.0085 | 0.08 | 0.0085 ± 0.011 | 0.0165 ± 0.005 | -0.004 ± 0.0014 | 0.0045 ± 0.012 | 0.023 ± 0.044 | -0.0155 ± 0.015 | -0.02 ± 0.0085 | 0.003 ± 0.024 | -0.0035 ± 0.0078 | 0.0575 ± 0.012 | 0.064 ± 0.0028
5 | 3C:SRB | -0.016 ± 0.0071 | -0.0055 ± 0.019 | -0.149 ± 0.074 | -0.005 ± 0.0071 | -0.006 ± 0.0071 | -0.0025 ± 0.00071 | 0.008 ± 0.016 | 0.0195 ± 0.019 | -0.054 | 0.0125 ± 0.015 | 0.0295 ± 0.03 | -0.0095 ± 0.00071 | -0.006 ± 0.0028 | -0.012 ± 0.0099 | 0.0005 ± 0.021 | 0.0035 ± 0.0092 | -0.0345 ± 0.0078 | 0.0145 ± 0.022 | -0.031 ± 0.0028 | -0.0675 ± 0.028
